Experimental data published in patent EP4268823A1, “COMPOUND FOR TREATING NEUROINFLAMMATION” (Universitätsklinikum Hamburg-Eppendorf, priority 2022, dated 2023).

Experiments:
EAE mice = assay: Experimental autoimmune encephalomyelitis (EAE): clinical score and spinal cord histopathology
anti-ferroptotic genes = assay: qPCR of ferroptosis-related genes in sorted spinal cord neuronal nuclei of EAE mice; assay type: in vivo, mouse; conditions: EAE + UNC0642 vs. EAE
G9a = target: T1, G9a (Homo sapiens, UniProt Q96KQ7); assay: H3K9me2 immunostaining in hiPSC neurons after erastin; assay type: cell-based; conditions: erastin + UNC0642
T1 construct: H3K9me2 immunostaining and quantification in response to ferroptosis induction with erastin in hiPSC neurons; endogenous in cells; host or cells: neurons differentiated from human iPSCs (ZIPi013-B)
T1 sequence (Q96KQ7 1-1210): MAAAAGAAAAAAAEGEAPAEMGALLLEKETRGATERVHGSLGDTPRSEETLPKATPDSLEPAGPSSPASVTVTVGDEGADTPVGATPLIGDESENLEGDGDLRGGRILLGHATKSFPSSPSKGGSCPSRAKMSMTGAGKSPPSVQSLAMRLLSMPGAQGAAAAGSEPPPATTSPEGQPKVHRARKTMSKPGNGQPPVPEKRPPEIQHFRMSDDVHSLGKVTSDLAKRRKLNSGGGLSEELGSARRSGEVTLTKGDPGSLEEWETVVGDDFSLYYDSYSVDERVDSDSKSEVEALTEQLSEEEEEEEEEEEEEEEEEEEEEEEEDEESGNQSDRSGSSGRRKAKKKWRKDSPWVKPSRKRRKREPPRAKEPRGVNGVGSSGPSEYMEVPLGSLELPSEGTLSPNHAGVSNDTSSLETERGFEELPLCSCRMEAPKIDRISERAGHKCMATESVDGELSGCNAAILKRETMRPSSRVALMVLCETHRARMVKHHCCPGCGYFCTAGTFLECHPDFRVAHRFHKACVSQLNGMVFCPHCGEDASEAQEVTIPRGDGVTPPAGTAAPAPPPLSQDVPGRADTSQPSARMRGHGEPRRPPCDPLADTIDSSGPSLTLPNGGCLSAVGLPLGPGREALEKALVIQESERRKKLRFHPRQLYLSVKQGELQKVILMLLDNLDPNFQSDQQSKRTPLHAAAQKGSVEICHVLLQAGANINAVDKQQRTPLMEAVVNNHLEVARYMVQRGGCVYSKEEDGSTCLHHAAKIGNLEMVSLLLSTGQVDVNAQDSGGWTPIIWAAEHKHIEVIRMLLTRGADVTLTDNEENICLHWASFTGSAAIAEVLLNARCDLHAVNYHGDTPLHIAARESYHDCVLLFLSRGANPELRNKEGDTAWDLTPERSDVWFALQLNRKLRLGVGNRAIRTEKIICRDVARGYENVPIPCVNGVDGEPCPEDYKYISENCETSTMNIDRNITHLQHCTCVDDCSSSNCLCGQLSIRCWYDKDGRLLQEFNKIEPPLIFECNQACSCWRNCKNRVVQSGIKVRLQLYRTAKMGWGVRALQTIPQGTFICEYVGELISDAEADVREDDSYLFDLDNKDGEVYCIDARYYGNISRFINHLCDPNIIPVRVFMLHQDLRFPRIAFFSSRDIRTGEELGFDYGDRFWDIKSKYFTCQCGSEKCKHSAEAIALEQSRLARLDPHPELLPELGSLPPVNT
Description: Human iPSCs (ZIPi013-B) (83) were maintained under feeder-free conditions on Matrigel (Corning)-coated plates in mTeSR1 medium (Stem Cell Technologies, cat. no. 85850). For neuronal induction, iPSCs were dissociated with Accutase and seeded at a density of 3 × 10^6 cells per well on AggreWell800 plates (10,000 cells per embryoid body (EB), Stem Cell Technologies) in SMADi Neural Induction Medium (SMADi NIM, Stem Cell Technologies, cat. no. 08582) supplemented with […] (Stem Cell Technologies, cat. no. 72302). On day 6, EBs were harvested and cultivated on Matrigel-coated plates in SMADi NIM for 12 days. Newly formed neural rosettes were manually picked and cultured for another 4 days. In order to release neural precursor cells (NPCs), neural rosettes were dissociated with Accutase and were maintained for several passages at high density in Neural Progenitor Medium (Stem Cell Technologies, cat. no. 05833) on Matrigel-coated plates. HiPSC-derived NPCs were differentiated into neurons as previously described (84, 85) with some modifications. Briefly, NPCs were seeded at a density of 1 × 10^5 cells per cm^2 in Neural Progenitor Medium onto Matrigel-coated plates. […]
Immunocytochemistry was performed as described previously (15). […] Immunostainings were analyzed with a Zeiss LSM 700 confocal microscope.

With `COc1cc2c(NC3CCN(C(C)C)CC3)nc(N3CCC(F)(F)CC3)nc2cc1OCCCN1CCCC1` [UNC0642, 2-(4,4-difluoropiperidin-1-yl)-6-methoxy-N-[1-(propan-2-yl)piperidin-4-yl]-7-[3-(pyrrolidin-1-yl)propoxy]quinazolin-4-amine] the EAE disease course (EAE mice; 5 mg kg-1 body weight once daily intraperitoneally from symptom onset, vs. vehicle) was “significantly ameliorated EAE disease course”, the body weight changes (EAE mice; EAE, 5 mg kg-1 UNC0642) was “not altered” and the immune cell infiltration (EAE mice; EAE, 5 mg kg-1 UNC0642) was “not altered”. For the same compound, the microglia activation (EAE mice; EAE, 5 mg kg-1 UNC0642) was “not altered”, the “4-hydroxy-2-nonenal (4-HNE) levels” value (EAE mice; cervical spinal cord sections, chronic EAE, 5 mg kg-1 UNC0642 vs. vehicle) was “significantly reduced” and the “neuronal loss in the spinal cord ventral horn” value (EAE mice; chronic EAE, day 30, 5 mg kg-1 UNC0642) was “reduced neuronal loss”. For the same compound, the “mRNA expression of Cbs” value (anti-ferroptotic genes) was “significantly boosted the expression”, the “mRNA expression of Gclc” value (anti-ferroptotic genes) was “significantly boosted the expression” and the “mRNA expression of Gpx4” value (anti-ferroptotic genes) was “significantly boosted the expression”. For the same compound, the “mRNA expression of Nfe212” value (anti-ferroptotic genes) was “significantly boosted the expression”, the “mRNA expression of multiple glutathione S-transferases” value (anti-ferroptotic genes) was “derepression” and the “increase of H3K9me2 levels in response to erastin-induced ferroptosis” value (G9a) was “rescued”.
